Key:
[1] = molecular target: T1, TmTRPA1a (Tropilaelaps mercedesae, UniProt A0A193PK31); assay: Fura-2 calcium imaging, HEK293; type: cell-based; settings: activator, pH 7.4, 2 mM CaCl2
T1 construct: gene TRPA1; full-length, untagged, transiently expressed in HEK293 cells; expected 134 kD; 15 ankyrin repeats
T1 sequence (A0A193PK31 1-1172): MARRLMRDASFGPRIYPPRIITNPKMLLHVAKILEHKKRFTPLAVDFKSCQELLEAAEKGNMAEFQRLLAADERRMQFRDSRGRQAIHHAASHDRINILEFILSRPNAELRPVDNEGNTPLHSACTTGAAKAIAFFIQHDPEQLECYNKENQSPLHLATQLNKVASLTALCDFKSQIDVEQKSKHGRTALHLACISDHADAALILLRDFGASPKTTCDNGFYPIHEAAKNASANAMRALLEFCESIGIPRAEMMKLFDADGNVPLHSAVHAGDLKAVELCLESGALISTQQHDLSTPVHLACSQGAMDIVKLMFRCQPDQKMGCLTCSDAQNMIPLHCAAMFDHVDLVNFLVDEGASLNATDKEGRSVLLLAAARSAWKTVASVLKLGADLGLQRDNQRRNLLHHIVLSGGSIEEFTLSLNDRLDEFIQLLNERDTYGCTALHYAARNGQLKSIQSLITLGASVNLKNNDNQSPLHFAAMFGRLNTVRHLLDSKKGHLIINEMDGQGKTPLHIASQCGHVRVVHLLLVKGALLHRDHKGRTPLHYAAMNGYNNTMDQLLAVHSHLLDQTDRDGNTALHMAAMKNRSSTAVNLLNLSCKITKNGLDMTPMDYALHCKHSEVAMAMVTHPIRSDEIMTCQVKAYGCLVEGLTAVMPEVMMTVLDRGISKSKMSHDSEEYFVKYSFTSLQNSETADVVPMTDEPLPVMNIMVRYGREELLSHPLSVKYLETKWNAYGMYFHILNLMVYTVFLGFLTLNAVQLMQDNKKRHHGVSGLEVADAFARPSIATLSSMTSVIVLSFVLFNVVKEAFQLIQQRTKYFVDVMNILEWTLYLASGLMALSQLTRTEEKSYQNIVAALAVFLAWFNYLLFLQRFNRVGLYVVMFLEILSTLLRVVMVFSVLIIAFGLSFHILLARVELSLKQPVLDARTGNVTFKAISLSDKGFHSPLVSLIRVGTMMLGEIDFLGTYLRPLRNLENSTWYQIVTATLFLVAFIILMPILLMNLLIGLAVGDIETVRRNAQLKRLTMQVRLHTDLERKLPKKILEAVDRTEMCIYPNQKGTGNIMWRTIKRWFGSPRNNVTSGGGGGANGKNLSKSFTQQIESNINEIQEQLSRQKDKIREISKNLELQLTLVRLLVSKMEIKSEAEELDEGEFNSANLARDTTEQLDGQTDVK
Excerpt: Fura-2 calcium imaging, HEK293 on TmTRPA1a | only six of the compounds activated TmTRPA1a.

[2] = molecular target: T2, TmTRPA1b (Tropilaelaps mercedesae, UniProt A0A193PK79); assay: Fura-2 calcium imaging, HEK293; type: cell-based; settings: pH 7.4, 2 mM CaCl2
T2 construct: gene TRPA1; full-length, untagged, transiently expressed in HEK293 cells; expected 143 kD; 15 ankyrin repeats
T2 sequence (A0A193PK79 1-1258): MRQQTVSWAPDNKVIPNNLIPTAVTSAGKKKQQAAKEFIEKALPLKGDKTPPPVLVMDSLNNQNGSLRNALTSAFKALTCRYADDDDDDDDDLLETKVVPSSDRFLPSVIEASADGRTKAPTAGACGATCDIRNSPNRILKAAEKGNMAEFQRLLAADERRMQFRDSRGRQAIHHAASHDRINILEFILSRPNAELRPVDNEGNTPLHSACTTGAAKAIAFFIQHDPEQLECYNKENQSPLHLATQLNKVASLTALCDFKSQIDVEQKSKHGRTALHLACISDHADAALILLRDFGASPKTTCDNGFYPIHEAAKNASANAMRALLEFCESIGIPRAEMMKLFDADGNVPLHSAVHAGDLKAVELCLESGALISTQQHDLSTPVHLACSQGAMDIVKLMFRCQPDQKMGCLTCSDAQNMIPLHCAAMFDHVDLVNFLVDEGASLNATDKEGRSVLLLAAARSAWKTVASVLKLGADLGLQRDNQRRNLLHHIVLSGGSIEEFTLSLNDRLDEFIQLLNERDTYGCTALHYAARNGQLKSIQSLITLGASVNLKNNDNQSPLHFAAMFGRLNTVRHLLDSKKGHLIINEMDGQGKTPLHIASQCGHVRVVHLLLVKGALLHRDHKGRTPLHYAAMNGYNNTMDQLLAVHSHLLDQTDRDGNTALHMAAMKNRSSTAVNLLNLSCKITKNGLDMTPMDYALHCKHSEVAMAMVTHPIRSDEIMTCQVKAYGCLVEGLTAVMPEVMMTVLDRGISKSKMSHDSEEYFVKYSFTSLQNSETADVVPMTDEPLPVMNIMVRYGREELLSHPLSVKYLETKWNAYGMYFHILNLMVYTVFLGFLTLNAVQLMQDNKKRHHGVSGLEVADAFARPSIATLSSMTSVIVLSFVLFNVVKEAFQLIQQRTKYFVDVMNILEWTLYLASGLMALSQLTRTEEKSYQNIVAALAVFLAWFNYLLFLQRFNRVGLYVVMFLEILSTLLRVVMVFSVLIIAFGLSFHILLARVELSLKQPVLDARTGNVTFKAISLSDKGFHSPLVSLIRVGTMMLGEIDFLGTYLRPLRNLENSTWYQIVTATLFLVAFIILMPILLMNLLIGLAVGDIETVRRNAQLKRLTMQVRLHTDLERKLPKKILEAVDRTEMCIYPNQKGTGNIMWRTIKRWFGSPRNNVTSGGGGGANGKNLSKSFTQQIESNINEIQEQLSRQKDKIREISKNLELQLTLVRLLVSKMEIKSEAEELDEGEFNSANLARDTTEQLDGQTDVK

CC(C)=CCC/C(C)=C\CO [nerol]
Fura-2 calcium imaging, HEK293 ([1]; 1 mM (Figure 5 legend; Methods state 0.5 mM)): only six of the compounds activated TmTRPA1a. These are nerol, 2-undecanone, carvacrol | Fura-2 calcium imaging, HEK293 ([2]; 0.5 mM, activator): We observed robust activation of TmTRPA1b by eight representative plant-derived compounds

C=CCN=C=S [allyl isothiocyanate]
Fura-2 calcium imaging, HEK293 ([2]; 1 mM, electrophilic activator): allyl isothiocyanate (AITC), cinnamaldehyde (CA) and diallyl disulfide also activate TmTRPA1b

Cc1ccc(C(C)C)cc1O [carvacrol]
Fura-2 calcium imaging, HEK293 ([1]; 0.5 mM): only six of the compounds activated TmTRPA1a. These are nerol, 2-undecanone, carvacrol | Fura-2 calcium imaging, HEK293 ([2]; 0.5 mM, activator): We observed robust activation of TmTRPA1b by eight representative plant-derived compounds

CC12CCC(CC1)C(C)(C)O2 [1,8-cineole]
Fura-2 calcium imaging, HEK293 ([2]; 1 mM, activator): We observed robust activation of TmTRPA1b by eight representative plant-derived compounds

CC1=CCC(O)(C(C)C)CC1 (centres unmarked) [terpinen-4-ol]
Fura-2 calcium imaging, HEK293 ([1]; 1 mM): These are nerol, 2-undecanone, carvacrol, geranylacetone, eugenol and terpinen-4-ol

CC(C)=CCCC(C)CCO (stereo not drawn) [β-citronellol]
Fura-2 calcium imaging, HEK293 ([2]; 1 mM, activator): We observed robust activation of TmTRPA1b by eight representative plant-derived compounds

CC(=O)CC/C=C(\C)CCC=C(C)C [geranylacetone]
Fura-2 calcium imaging, HEK293 ([1]; 0.5 mM): These are nerol, 2-undecanone, carvacrol, geranylacetone, eugenol and terpinen-4-ol | Fura-2 calcium imaging, HEK293 ([2]; 0.5 mM, activator): We observed robust activation of TmTRPA1b by eight representative plant-derived compounds

O=CC=Cc1ccccc1 [cinnamaldehyde]
Fura-2 calcium imaging, HEK293 ([2]; 1 mM, electrophilic activator): allyl isothiocyanate (AITC), cinnamaldehyde (CA) and diallyl disulfide also activate TmTRPA1b

CC1=CCC(C(C)(C)O)CC1 (stereo not drawn) [α-terpineol]
Fura-2 calcium imaging, HEK293 ([2]; 1 mM, activator): We observed robust activation of TmTRPA1b by eight representative plant-derived compounds

C=CCSSCC=C [diallyl disulfide]
Fura-2 calcium imaging, HEK293 ([2]; 1 mM, electrophilic activator): allyl isothiocyanate (AITC), cinnamaldehyde (CA) and diallyl disulfide also activate TmTRPA1b

CC/C=C\C[C@H]1C(=O)CC[C@@H]1CC(=O)OC [methyl jasmonate]
Fura-2 calcium imaging, HEK293 ([2]; 1 mM, activator): We observed robust activation of TmTRPA1b by eight representative plant-derived compounds

C=CCc1ccc(O)c(OC)c1 [eugenol]
Fura-2 calcium imaging, HEK293 ([1]; 1 mM): These are nerol, 2-undecanone, carvacrol, geranylacetone, eugenol and terpinen-4-ol

CCCCCCCCCC(C)=O [2-undecanone]
Fura-2 calcium imaging, HEK293 ([1]; 1 mM): only six of the compounds activated TmTRPA1a. These are nerol, 2-undecanone, carvacrol | Fura-2 calcium imaging, HEK293 ([2]; 1 mM, activator): We observed robust activation of TmTRPA1b by eight representative plant-derived compounds
